Data reported in patent US12441725B2, “ISO-citrate dehydrogenase (IDH) inhibitor” (ZHEJIANG METON PHARMACEUTICAL CO., LTD, priority 2019, dated 2025).

How the values were obtained:
[1] = target: T1, IDH1 R132H (Homo sapiens, UniProt O75874, R132H); assay: Biochemical assay for IDH inhibition (NADPH fluorescence), mutant IDH1 R132H; conditions: 50 nM IDH1-R132H, 1 hour pre-incubation, in triplet
T1 construct: 6xHis
In short: (§1)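 Mutant enzyme (25 nM R132C or 50 nM R132H) was preincubated 1 h at room temperature with compound in pH 7.5 Tris buffer containing 1.33 mM α-KG, and the reaction was then started with NADPH (80 μM solution). NADPH consumption was followed by fluorescence (Ex 340/Em 460 nm) for 15 min. IC50 was derived from background-corrected linear rates relative to vehicle, run in triplicate.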

[2] = target: T2, IDH (endogenous IDH1 R132C) in HT1080 cell (Homo sapiens, UniProt O75874, R132C); assay: Cell-based assay for IDH inhibition (decrease of D-2-HG) in HT1080 cells; conditions: human fibrosarcoma cell line HT1080, 16 hours treatment, D-2-HG by LC-MS, in triplet
T2 construct: which harbor endogenous heterozygous IDH1 R132C and R132H mutation respectively and accumulate D-2-HG
In short: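 HT1080 cells with endogenous IDH1 R132C, grown in DMEM/10% FBS, treated with compound at several concentrations for 16 h. Metabolites extracted in cold 40% methanol/40% acetonitrile and D-2-HG measured by HILIC LC-MS/MS, normalized to glutamate. IC50 from D-2-HG relative to DMSO controls; run in triplicate.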

[3] = target: T3, IDH1 R132C (Homo sapiens, UniProt O75874, R132C); assay: Biochemical assay for IDH inhibition (NADPH fluorescence), mutant IDH1 R132C; conditions: 25 nM IDH1-R132C, 1 hour pre-incubation, in triplet
T3 construct: 6xHis
In short: as §1

T1 sequence (O75874 whole entry R132H): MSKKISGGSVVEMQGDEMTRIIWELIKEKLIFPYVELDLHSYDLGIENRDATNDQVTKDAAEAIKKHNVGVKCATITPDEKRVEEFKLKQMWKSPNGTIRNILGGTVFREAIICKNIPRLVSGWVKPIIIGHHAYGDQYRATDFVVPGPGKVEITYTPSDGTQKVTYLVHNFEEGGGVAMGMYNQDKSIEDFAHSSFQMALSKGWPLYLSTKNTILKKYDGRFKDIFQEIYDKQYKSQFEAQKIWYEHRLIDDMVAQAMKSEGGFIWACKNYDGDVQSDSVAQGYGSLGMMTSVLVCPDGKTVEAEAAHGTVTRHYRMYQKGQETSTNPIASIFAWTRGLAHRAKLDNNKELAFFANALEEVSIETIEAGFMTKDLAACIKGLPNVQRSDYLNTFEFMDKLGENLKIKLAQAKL
T2 sequence (O75874 2-414 R132C): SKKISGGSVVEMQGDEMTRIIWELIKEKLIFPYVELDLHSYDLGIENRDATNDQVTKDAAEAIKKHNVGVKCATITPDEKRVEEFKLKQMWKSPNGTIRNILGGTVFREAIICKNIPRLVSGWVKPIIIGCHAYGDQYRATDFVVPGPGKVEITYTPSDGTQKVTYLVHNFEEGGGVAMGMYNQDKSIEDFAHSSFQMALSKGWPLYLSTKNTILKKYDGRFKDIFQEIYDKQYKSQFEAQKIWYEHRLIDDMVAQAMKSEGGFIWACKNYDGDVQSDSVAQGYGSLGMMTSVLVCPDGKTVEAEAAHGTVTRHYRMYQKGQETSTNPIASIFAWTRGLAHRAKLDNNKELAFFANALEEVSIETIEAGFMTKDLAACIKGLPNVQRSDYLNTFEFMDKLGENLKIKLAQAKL
T3 sequence (O75874 whole entry R132C): as the sequence (O75874 whole entry R132H) above, with H132C counted along it

SMILES | IC50 [1] [nM] | IC50 [2] [nM] | IC50 [3] [nM]
CCN1Cc2c(N[C@@H](C)c3ccc(-c4ccnc(C(C)(C)C)c4)c(F)c3)ncnc2C1=O [Compound 66, (S)-4-((1-(4-(2-(tert-butyl)pyridin-4-yl)-3-fluorophenyl)ethyl)amino)-6-ethyl-5H-pyrrolo[3,4-d]pyrimidin-7(6H)-one] | 100 to 500 | 500 to 1000 | > 1000
CCN1Cc2c(N[C@@H](C)c3ccc(-c4ccc(F)c(C)c4)c(F)c3)ncnc2C1=O [Compound 67, (S)-4-((1-(2,4′-difluoro-3′-methyl-[1,1′-biphenyl]-4-yl)ethyl)amino)-6-ethyl-5H-pyrrolo[3,4-d]pyrimidin-7(6H)-one] | > 1000 | 100 to 500 | > 1000
CCN1Cc2c(ccnc2N[C@@H](C)c2ccc(C3CCCC3)c(F)c2)C1=O [Compound 68, 4-[[(1S)-1-(4-cyclopentyl-3-fluoro-phenyl)ethyl]amino]-2-ethyl-3H-pyrrolo[3,4-c]pyridin-1-one] | 500 to 1000 | > 1000 | > 1000
CCN1Cc2c(ccnc2N[C@@H](C)c2ccc(-c3ccnc(C(C)(C)C(N)=O)c3)c(F)c2)C1=O [Compound 69, 2-[4-[4-[(1S)-1-[(2-ethyl-1-oxo-3H-pyrrolo[3,4-c]pyridin-4-yl)amino]ethyl]-2-fluoro-phenyl]-2-pyridyl]-2-methyl-propanamide] | > 1000 | 500 to 1000 | > 1000
CCN1Cc2c(ccnc2N[C@@H](C)c2ccc(-c3ccnc4ccccc34)c(F)c2)C1=O [Compound 70, (S)-2-ethyl-4-((1-(3-fluoro-4-(quinolin-4-yl)phenyl)ethyl)amino)-2,3-dihydro-1H-pyrrolo[3,4-c]pyridin-1-one] | > 1000 | > 1000 | > 1000
CCN1Cc2c(ccnc2N[C@@H](C)c2ccc(-c3ccnc(C(C)(C)C)c3)c(F)c2)C1=O [Compound 71, (S)-4-((1-(4-(2-(tert-butyl)pyridin-4-yl)-3-fluorophenyl)ethyl)amino)-2-ethyl-2,3-dihydro-1H-pyrrolo[3,4-c]pyridin-1-one] | < 100 | 100 to 500 | < 100
CCN1Cc2c(ccnc2N[C@@H](C)c2ccc(-c3ccc4c(ccn4C)c3)c(F)c2)C1=O [Compound 72, (S)-2-ethyl-4-((1-(3-fluoro-4-(1-methyl-1H-indol-5-yl)phenyl)ethyl)amino)-2,3-dihydro-1H-pyrrolo[3,4-c]pyridin-1-one] | 100 to 500 | > 1000 | 500 to 1000
CCN1Cc2c(ccnc2N[C@@H](C)c2ccc(-c3ccc(C)cc3)c(F)c2)C1=O [Compound 73, (S)-2-ethyl-4-((1-(2-fluoro-4′-methyl-[1,1′-biphenyl]-4-yl)ethyl)amino)-2,3-dihydro-1H-pyrrolo[3,4-c]pyridin-1-one] | 100 to 500 | > 1000 | > 1000
CCN1Cc2c(ccnc2N[C@@H](C)c2ccc(-c3ccc(F)cc3)c(F)c2)C1=O [Compound 74, (S)-4-((1-(2,4′-difluoro-[1,1′-biphenyl]-4-yl)ethyl)amino)-2-ethyl-2,3-dihydro-1H-pyrrolo[3,4-c]pyridin-1-one] | > 1000 | > 1000 | > 1000
CCN1Cc2c(ccnc2N[C@@H](C)c2ccc(-c3ccc(C(F)(F)F)nc3)c(F)c2)C1=O [Compound 75, (S)-2-ethyl-4-((1-(3-fluoro-4-(6-(trifluoromethyl)pyridin-3-yl)phenyl)ethyl)amino)-2,3-dihydro-1H-pyrrolo[3,4-c]pyridin-1-one] | > 1000 | > 1000 | > 1000
CCN1Cc2c(ccnc2N[C@@H](C)c2ccc(-c3cc(C)nc(C)c3)c(F)c2)C1=O [Compound 76, (S)-4-((1-(4-(2,6-dimethylpyridin-4-yl)-3-fluorophenyl)ethyl)amino)-2-ethyl-2,3-dihydro-1H-pyrrolo[3,4-c]pyridin-1-one] | > 1000 | > 1000 | > 1000
CCN1Cc2c(ccnc2N[C@@H](C)c2ccc(-c3ccnc(C4CCC4)c3)c(F)c2)C1=O [Compound 77, (S)-4-((1-(4-(2-cyclobutylpyridin-4-yl)-3-fluorophenyl)ethyl)amino)-2-ethyl-2,3-dihydro-1H-pyrrolo[3,4-c]pyridin-1-one] | 100 to 500 | 500 to 1000 | 100 to 500
CCN1Cc2c(ccnc2N[C@@H](C)c2ccc(-c3ccnc(C4(O)CCC4)c3)c(F)c2)C1=O [Compound 78, (S)-2-ethyl-4-((1-(3-fluoro-4-(2-(1-hydroxycyclobutyl)pyridin-4-yl)phenyl)ethyl)amino)-2,3-dihydro-1H-pyrrolo[3,4-c]pyridin-1-one] | > 1000 | 500 to 1000 | > 1000
CCN1Cc2c(ccnc2N[C@@H](C)c2ccc(-c3ccnc(CC4CC4)c3)c(F)c2)C1=O [Compound 79, (S)-4-((1-(4-(2-(cyclopropylmethyl)pyridin-4-yl)-3-fluorophenyl)ethyl)amino)-2-ethyl-2,3-dihydro-1H-pyrrolo[3,4-c]pyridin-1-one] | 100 to 500 | 500 to 1000 | 100 to 500
CCN1Cc2c(ccnc2N[C@@H](C)c2ccc(-c3ccccc3)c(F)c2)C1=O [Compound 80, (S)-2-ethyl-4-((1-(2-fluoro-[1,1′-biphenyl]-4-yl)ethyl)amino)-2,3-dihydro-1H-pyrrolo[3,4-c]pyridin-1-one] | > 1000 | > 1000 | > 1000
CCN1Cc2c(ccnc2N[C@@H](C)c2ccc(-c3ccc(F)c(C)c3)c(F)c2)C1=O [Compound 81, (S)-4-((1-(2,4′-difluoro-3′-methyl-[1,1′-biphenyl]-4-yl)ethyl)amino)-2-ethyl-2,3-dihydro-1H-pyrrolo[3,4-c]pyridin-1-one] | 100 to 500 | > 1000 | 500 to 1000
CCN1Cc2c(ccnc2N[C@@H](C)c2ccc(-c3ccc(C)cn3)c(F)c2)C1=O [Compound 82, (S)-2-ethyl-4-((1-(3-fluoro-4-(5-methylpyridin-2-yl)phenyl)ethyl)amino)-2,3-dihydro-1H-pyrrolo[3,4-c]pyridin-1-one] | > 1000 | > 1000 | > 1000
CCN1Cc2c(ccnc2N[C@@H](C)c2ccc(-c3ccn(C)n3)c(F)c2)C1=O [Compound 83, (S)-2-ethyl-4-((1-(3-fluoro-4-(1-methyl-1H-pyrazol-3-yl)phenyl)ethyl)amino)-2,3-dihydro-1H-pyrrolo[3,4-c]pyridin-1-one] | > 1000 | > 1000 | > 1000
CCN1Cc2c(ccnc2N[C@@H](C)c2ccc(-c3ccnc(C(C)(C)C#N)c3)c(F)c2)C1=O [Compound 84, (S)-2-(4-(4-(1-((2-ethyl-1-oxo-2,3-dihydro-1H-pyrrolo[3,4-c]pyridin-4-yl)amino)ethyl)-2-fluorophenyl)pyridin-2-yl)-2-methylpropanenitrile] | 100 to 500 | > 1000 | > 1000
CCN1Cc2c(ccnc2N[C@@H](C)c2ccc(-c3ccnc(C(O)C4CC4)c3)c(F)c2)C1=O (stereo partly drawn) [Compound 85, 4-(((1S)-1-(4-(2-(cyclopropyl(hydroxy)methyl)pyridin-4-yl)-3-fluorophenyl)ethyl)amino)-2-ethyl-2,3-dihydro-1H-pyrrolo[3,4-c]pyridin-1-one] | > 1000 | > 1000 | > 1000
CCN1Cc2c(ccnc2N[C@@H](C)c2ccc(-c3ccnc(C(=O)C4CC4)c3)c(F)c2)C1=O [Compound 86, (S)-4-((1-(4-(2-(cyclopropanecarbonyl)pyridin-4-yl)-3-fluorophenyl)ethyl)amino)-2-ethyl-2,3-dihydro-1H-pyrrolo[3,4-c]pyridin-1-one] | > 1000 | > 1000 | > 1000
CCN1Cc2c(ccnc2N[C@@H](C)c2cc(F)c(-c3ccnc(C(C)(C)C)c3)cc2F)C1=O [Compound 87, (S)-4-((1-(4-(2-(tert-butyl)pyridin-4-yl)-2,5-difluorophenyl)ethyl)amino)-2-ethyl-2,3-dihydro-1H-pyrrolo[3,4-c]pyridin-1-one] | < 100 | < 100 | < 100
CCN1Cc2c(ccnc2N[C@@H](C)c2cc(F)c(-c3ccnc(C(F)(F)F)c3)cc2F)C1=O [Compound 88, (S)-4-((1-(2,5-difluoro-4-(2-(trifluoromethyl)pyridin-4-yl)phenyl)ethyl)amino)-2-ethyl-2,3-dihydro-1H-pyrrolo[3,4-c]pyridin-1-one] | 500 to 1000 | > 1000 | > 1000
CCN1Cc2c(ccnc2N[C@@H](C)c2cc(F)c(-c3ccnc(C4CCC4)c3)cc2F)C1=O [Compound 89, (S)-4-((1-(4-(2-cyclobutylpyridin-4-yl)-2,5-difluorophenyl)ethyl)amino)-2-ethyl-2,3-dihydro-1H-pyrrolo[3,4-c]pyridin-1-one] | < 100 | 100 to 500 | 100 to 500
CCN1Cc2c(ccnc2N[C@@H](C)c2cc(F)c(-c3ccnc(C4CC4)c3)cc2F)C1=O [Compound 90, (S)-4-((1-(4-(2-cyclopropylpyridin-4-yl)-2,5-difluorophenyl)ethyl)amino)-2-ethyl-2,3-dihydro-1H-pyrrolo[3,4-c]pyridin-1-one] | 100 to 500 | 500 to 1000 | > 1000
